Experimental data from the NIST ThermoML archive (doi:10.1016/j.jct.2005.02.003).

Assay: molar heat capacity at constant pressure
Conditions: 101.33 kPa, Liquid

CC(C)COC(C)(C)C [isobutyl tert-butyl ether]
Conditions | molar heat capacity at constant pressure [J/K/mol]
240.05 K | 243.3
240.77 K | 243.8
241.5 K | 243.9
242.22 K | 244.6
242.94 K | 245.2
243.67 K | 244.9
244.39 K | 244.9
245.12 K | 245.9
246.57 K | 247
247.3 K | 245.8
248.03 K | 247
248.76 K | 247.9
249.49 K | 247.9
250 K | 247.9
250.22 K | 248.3
251.77 K | 248
252.51 K | 248.4
253.24 K | 249
253.98 K | 249.8
254.72 K | 250.5
255.46 K | 250.1
256.2 K | 251
256.95 K | 251.3
257.7 K | 250.7
258.45 K | 251.2
259.2 K | 251.6
259.95 K | 252.5
260 K | 252.2
260.71 K | 252.3
261.46 K | 252.8
262.22 K | 253.6
263.85 K | 253.7
264.62 K | 254.4
265.39 K | 254.4
266.16 K | 255.3
266.93 K | 255.3
267.7 K | 255.9
268.48 K | 256.3
269.26 K | 256.4
270 K | 256.6
270.82 K | 256.8
273.2 K | 258
274 K | 258.2
274.8 K | 258.2
275.61 K | 258.9
276.58 K | 259.7
277.39 K | 259.4
279.03 K | 261.1
279.86 K | 261.4
280 K | 260.9
280.69 K | 261
282.66 K | 262.3
283.22 K | 262.3
284.18 K | 262.8
284.95 K | 263.7
285.74 K | 263.4
287.3 K | 264
287.56 K | 264.4
288.43 K | 264.7
288.86 K | 264.2
290 K | 265.2
290.42 K | 264.9
290.43 K | 265.6
291.99 K | 265.5
295.17 K | 266.9
298.15 K | 268.7
298.38 K | 268.5
299.98 K | 269.1
300 K | 269.6
301.59 K | 269.8
303.21 K | 270.6
304.86 K | 271.6
306.49 K | 272.2
308.3 K | 273.1
309.95 K | 274
310 K | 274
311.6 K | 274.4
313.27 K | 275.7
314.92 K | 276.5
316.58 K | 277.2
318.24 K | 278.5
319.91 K | 278.9
320 K | 278.7
321.57 K | 279.3
323.26 K | 280.8
324.94 K | 281.6
326.61 K | 282.4
328.29 K | 283.1
329.99 K | 283.8
330 K | 283.7
331.66 K | 284.7
333.33 K | 285.5
335.19 K | 285.9
336.85 K | 286.8
338.51 K | 287.9
340 K | 289
340.16 K | 289
341.81 K | 290
343.47 K | 291.2
345.13 K | 291.6
346.78 K | 292.3
348.44 K | 293
350 K | 294.5
350.08 K | 294.6
351.76 K | 295.7
353.42 K | 296.9
